# Assay results from US20070099828A1, “BIOMARKERS FOR THE EFFICACY OF CALCITONIN AND PARATHYROID HORMONE TREATMENT” (priority 2003, published 2007).
# Values joined by “and” are separate entries in the source; they are usually repeats but may differ in a detail not shown here. Identical values can stand only once. Ends that are not written are not given here.
# How the values were obtained:
# [1] = cynomolgus monkey, in vivo
# Excerpt: Animals. […] Solvent was used as vehicle for the control group.
# The animals used in this analysis were cynomolgus monkeys (Macaca fascicularis), supplied by Centre de Recherches Primatologiques, Port Louis, Mauritius. Two animals were used per group and sex. At the beginning of the treatment period, the animals were at least 24 months old, with a body weight of approximately 3 kg. Animals were kept under standard conditions for animal welfare. Animals were examined daily for mortality, food consumption and clinical observations. Body weight was recorded once per week.
# [2] = Blood pressure; format: in vivo, cynomolgus monkeys (Macaca fascicularis); conditions: for Blood Pressure Difference: Week 2 vs Week-1; for Blood Pressure Week-1: before dosing
# [3] = Haematology; format: in vivo, cynomolgus monkeys (Macaca fascicularis)
# Excerpt: (§1) Blood sampling. […] Blood samples were taken from a peripheral vein.
# [4] = Hormone determinations in serum; format: in vivo, cynomolgus monkeys (Macaca fascicularis); conditions: males
# Excerpt: as §1
# [5] = Urinary analysis
# [6] = urine, females, day −8 (pre-dose)
sequence,measurement,setting,value
"SVSEIQLLHDKGKHLASQERVEWLRKKLQDVHTA [PTS893, Leu8, Asp10, Lys11, Ala16, Gln18, Thr33, Ala34 human PTH 1-34 [hPTH(1-34)]]","Food Consumption Avg., Both animals",[1],89.6
same,Blood Pressure Week 2,"[2]; Female, first line per animal",70 mmHg and 87 mmHg
same,Blood Pressure Difference,"[2]; Female, first line per animal",−22 mmHg and 9 mmHg
same,Blood Pressure Week-1,"[2]; Female, first line per animal",92 mmHg and 78 mmHg
same,Blood Pressure Week 2,"[2]; Female, second line per animal",42 mmHg and 28 mmHg
same,Blood Pressure Difference,"[2]; Female, second line per animal",−1 mmHg and 4 mmHg
same,Blood Pressure Week-1,"[2]; Female, second line per animal",43 mmHg and 24 mmHg
same,Blood Pressure Week 2,"[2]; Male, first line per animal",87 mmHg and 101 mmHg
same,Blood Pressure Difference,"[2]; Male, first line per animal",11 mmHg and −5 mmHg
same,Blood Pressure Week-1,"[2]; Male, first line per animal",76 mmHg and 106 mmHg
same,Blood Pressure Week 2,"[2]; Male, second line per animal",22 mmHg and 33 mmHg
same,Blood Pressure Difference,"[2]; Male, second line per animal",4 mmHg and −20 mmHg
same,Blood Pressure Week-1,"[2]; Male, second line per animal",18 mmHg and 53 mmHg
same,B,"[3]; females, d 7",0.06 G/L and 0.04 G/L
same,L,"[3]; females, d 7",6.29 G/L and 5.87 G/L
same,MCH,"[3]; females, d 7",18.9 pg and 19 pg
same,MCV,"[3]; females, d 7",67 fL and 68 fL
same,PCV,"[3]; females, d 7",0.41 l/l and 0.43 l/l
same,PLAT,"[3]; females, d 7",525 G/L and 382 G/L
same,RBC,"[3]; females, d 7",6.2 T/l and 6.4 T/l
same,WBC,"[3]; females, d 7",18.4 G/l and 12.3 G/l
same,B,"[3]; females, d 13",0.03 G/L and 0.04 G/L
same,E,"[3]; females, d 13",0.21 G/L and 0.29 G/L
same,HB,"[3]; females, d 13",11.3 g/dL
same,L,"[3]; females, d 13",5.81 G/L and 5.21 G/L
same,MCH,"[3]; females, d 13",19.3 pg and 19.2 pg
same,MCV,"[3]; females, d 13",67 fL and 66 fL
same,PCV,"[3]; females, d 13",0.4 l/l and 0.39 l/l
same,PLAT,"[3]; females, d 13",496 G/L and 309 G/L
same,RBC,"[3]; females, d 13",5.9 T/l
same,WBC,"[3]; females, d 13",13.2 G/l and 10.1 G/l
same,L,"[3]; females, d −8 (before dosing)",3.92 G/L and 4.4 G/L
same,MCH,"[3]; females, d −8 (before dosing)",19.3 pg
same,MCV,"[3]; females, d −8 (before dosing)",63 fL and 64 fL
same,PCV,"[3]; females, d −8 (before dosing)",0.44 l/l and 0.43 l/l
same,RBC,"[3]; females, d −8 (before dosing)",6.9 T/l and 6.7 T/l
same,WBC,"[3]; females, d −8 (before dosing)",10.1 G/l and 14.3 G/l
same,monocyte count,"[3]; females, d −8 (before dosing)",0.8 G/l and 0.54 G/l
same,B,"[3]; males, d 7",0.02 G/l and 0.03 G/l
same,HB,"[3]; males, d 7",11.3 g/dL and 11.9 g/dL
same,L,"[3]; males, d 7",5.91 G/l and 5.30 G/l
same,MCH,"[3]; males, d 7",17.7 pg and 20.2 pg
same,MCHC,"[3]; males, d 7",29.3 g/dL and 30.2 g/dL
same,MCV,"[3]; males, d 7",60 fL and 67 fL
same,PCV,"[3]; males, d 7",0.38 l/l and 0.40 l/l
same,PLAT,"[3]; males, d 7",456 G/l and 589 G/l
same,RBC,"[3]; males, d 7",6.4 T/l and 5.9 T/l
same,WBC,"[3]; males, d 7",8.4 G/l and 15.0 G/l
same,B,"[3]; males, d 13",0.04 G/l and 0.03 G/l
same,HB,"[3]; males, d 13",11.7 g/dL and 11.8 g/dL
same,L,"[3]; males, d 13",5.37 G/l and 4.86 G/l
same,M,"[3]; males, d 13",0.27 G/l and 0.46 G/l
same,MCH,"[3]; males, d 13",17.3 pg and 20.3 pg
same,MCHC,"[3]; males, d 13",27.5 g/dL and 29.2 g/dL
same,MCV,"[3]; males, d 13",63 fL and 70 fL
same,PCV,"[3]; males, d 13",0.43 l/l and 0.41 l/l
same,PLAT,"[3]; males, d 13",330 G/l and 452 G/l
same,RBC,"[3]; males, d 13",6.8 T/l and 5.8 T/l
same,WBC,"[3]; males, d 13",8.8 G/l and 11.9 G/l
same,HB,"[3]; males, d −6 (before dosing)",13.6 g/dL and 13.2 g/dL
same,L,"[3]; males, d −6 (before dosing)",5.07 G/l and 3.99 G/l
same,MCH,"[3]; males, d −6 (before dosing)",18.0 pg and 20.4 pg
same,MCHC,"[3]; males, d −6 (before dosing)",31.5 g/dL and 33.1 g/dL
same,MCV,"[3]; males, d −6 (before dosing)",57 fL and 62 fL
same,PCV,"[3]; males, d −6 (before dosing)",0.43 l/l and 0.40 l/l
same,PLAT,"[3]; males, d −6 (before dosing)",325 G/l and 459 G/l
same,RBC,"[3]; males, d −6 (before dosing)",7.6 T/l and 6.5 T/l
same,WBC,"[3]; males, d −6 (before dosing)",10.4 G/l and 9.1 G/l
same,ACTH,[4]; day 7,101 pg/mL and 88 pg/mL
same,ALDOST,[4]; day 7,380 pg/mL and 471 pg/mL
same,C-PEPTI,[4]; day 7,2.90 ng/mL and 4.40 ng/mL
same,CORTISOL,[4]; day 7,1156 nmol/L and 1432 nmol/L
same,CT,[4]; day 7,4.0 pg/mL and 7.8 pg/mL
same,G.H.,[4]; day 7,15.8 ng/mL and 11.6 ng/mL
same,GASTRIN,[4]; day 7,84 pg/mL and 98 pg/mL
same,GLUCAG,[4]; day 7,656 pg/mL and 497 pg/mL
same,INSULIN,[4]; day 7,22.0 mU/l and 38.0 mU/l
same,IPH,[4]; day 7,96 pg/mL and 62 pg/mL
same,S.MED,[4]; day 7,749 ng/mL and 828 ng/mL
same,T3,[4]; day 7,3.47 nmol/L and 2.76 nmol/L
same,T4,[4]; day 7,90 nmol/L and 80 nmol/L
same,VD25-H,[4]; day 7,62 nmol/L
same,ACTH,[4]; day 13,83 pg/mL and 91 pg/mL
same,ALDOST,[4]; day 13,592 pg/mL and 651 pg/mL
same,C-PEPTI,[4]; day 13,2.10 ng/mL and 2.40 ng/mL
same,CORTISOL,[4]; day 13,1299 nmol/L and 1212 nmol/L
same,CT,[4]; day 13,4.6 pg/mL and 7.6 pg/mL
same,G.H.,[4]; day 13,12.1 ng/mL and 14.0 ng/mL
same,GASTRIN,[4]; day 13,78 pg/mL and 94 pg/mL
same,GLUCAG,[4]; day 13,786 pg/mL and 739 pg/mL
same,INSULIN,[4]; day 13,14.0 mU/l and 10.0 mU/l
same,IPH,[4]; day 13,78 pg/mL and 55 pg/mL
same,S.MED,[4]; day 13,914 ng/mL and 867 ng/mL
same,T3,[4]; day 13,3.55 nmol/L and 2.43 nmol/L
same,T4,[4]; day 13,68 nmol/L and 56 nmol/L
same,VD25-H,[4]; day 13,50 nmol/L
same,ALDOST,[4]; day −6 (pre-dose),265 pg/mL and 141 pg/mL
same,CORTISOL,[4]; day −6 (pre-dose),1662 nmol/L and 1506 nmol/L
same,CT,[4]; day −6 (pre-dose),6.1 pg/mL and 10.4 pg/mL
same,G.H.,[4]; day −6 (pre-dose),13.4 ng/mL and 8.5 ng/mL
same,GLUCAG,[4]; day −6 (pre-dose),858 pg/mL and 694 pg/mL
same,INSULIN,[4]; day −6 (pre-dose),16.0 mU/l and 12.0 mU/l
same,IPH,[4]; day −6 (pre-dose),123 pg/mL and 71 pg/mL
same,PROLACT,[4]; day −6 (pre-dose),7.1 ng/mL and 7.5 ng/mL
same,T3,[4]; day −6 (pre-dose),2.48 nmol/L and 1.38 nmol/L
same,T4,[4]; day −6 (pre-dose),84 nmol/L and 59 nmol/L
same,VD25-H,[4]; day −6 (pre-dose),77 nmol/L and 88 nmol/L
same,ACTH,[4]; day −6 relative to start of dosing (pre-dose),96 pg/mL and 115 pg/mL
same,Ca2+ (urine),"[5]; males, day 13",7.55 mmol/L and 13.10 mmol/L
same,I.PHOS (urine),"[5]; males, day 13",0.10 mmol/L and 0.17 mmol/L
same,K+ (urine),"[5]; males, day 13",107 mmol/L and 69 mmol/L
same,LDH (urine),"[5]; males, day 13",14.0 IU/L and 19.0 IU/L
same,Mg2+ (urine),"[5]; males, day 13",8.70 mmol/L and 5.25 mmol/L
same,NAG (urine),"[5]; males, day 13",2.9 IU/l and 2.6 IU/l
same,CREAT (urine),"[5]; males, day −5 (before dosing)",16160 µmol/L and 16120 µmol/L
same,CREAT (urine),"[5]; males, day −6 (before dosing)",16160 µmol/L and 9940 µmol/L
same,Ca2+ (urine),"[5]; males, day −6 (before dosing)",5.10 mmol/L and 3.50 mmol/L
same,K+ (urine),"[5]; males, day −6 (before dosing)",86 mmol/L and 125 mmol/L
same,LDH (urine),"[5]; males, day −6 (before dosing)",7.0 IU/L and 9.0 IU/L
same,CREAT,"[5]; urine, females, day 13",5620 µmol/L and 8060 µmol/L
same,Ca2+,"[5]; urine, females, day 13",20.05 mmol/L and 12.35 mmol/L
same,Cl−,"[5]; urine, females, day 13",101 mmol/L and 133 mmol/L
same,LDH,"[5]; urine, females, day 13",10.0 IU/L and 9.0 IU/L
same,Mg2+,"[5]; urine, females, day 13",6.90 mmol/L and 5.90 mmol/L
same,VOLUME,"[5]; urine, females, day 13 of dosing",52 mL and 42 mL
same,CREAT,[5]; [6],19160 µmol/L and 14060 µmol/L
same,Ca2+,[5]; [6],11.50 mmol/L and 6.60 mmol/L
same,K+,[5]; [6],302 mmol/L and 164 mmol/L
same,LDH,[5]; [6],11.0 IU/L and 18.0 IU/L
same,Mg2+,[5]; [6],7.35 mmol/L and 4.00 mmol/L
same,Na+,[5]; [6],145 mmol/L and 118 mmol/L
